According to patent US4079130A, “Antidepressant phenylazoimidazoles” (The Dow Chemical Company, priority 1977, dated 1978):
Like-named read-outs stand apart in the source and are kept apart here.

Legend:
[1] = Acute toxicity, 50 percent lethal dose (LD50); details: mouse, in vivo
[2] = tested on: mice; assay: Protection from reserpine-induced depression (ptosis) in mice (antidepressant activity); type: in vivo; details: for ED50: Mus musculus; for antidepressant activity (in words): under the conditions of the demonstration
Method: Separate groups of mice and the same origin and past history (5 mice per group) were administered 2-((2-fluorophenyl)azo)-1H-imidazole (Example 3) in an aqueous carrier. Different groups were administered the compound by intraperitoneal injection at various dosage rates. Thirty minutes after the administration of the test compound, the mice were administered reserpine at a dosage rate of 2.5 milligrams per kilogram by intraperitoneal injection. Separate groups of similar mice were similarly administered 2.5 milligrams of reserpine per kilogram 30 minutes after administration of various dosages of the known antidepressant. The mice were then observed for 45 minutes for symptoms of reserpine-induced depression.
Protection from reserpine-induced depression is indicated by the absence of the characteristic ptosis.
The results were employed to calculate the dose effective to protect 50 percent of the mice (ED50) by classical, statistical procedures.
The procedure of Example 15 was repeated using oral administration of 2-((2-fluorophenyl)azo)-1H-imidazole (Example 3) instead of intraperitoneal injection.
Using the general procedure outlined above, the ED50 's were calculated for some of the other imidazoles herein disclosed.

[3] = tested on: mice; assay: Blocking of isolation-induced aggression in mice (antianxiety activity); type: in vivo; details: for ED50: Mus musculus, ip, intraperitoneal, 30 min before pairing, doses 10.0, 21.5, 46.4 mg/kg
Method: Antianxiety agents tend to block isolation-induced aggression in mice. Aggression was established in untrained mice by isolating them in individual cages for a period of four weeks. At the end of that period, the mice were paired for three minutes on three test days within one week to establish the absence or presence of aggression. During pairing, one mouse was always in the home cage, and the other was the intruder. […] On test days, each dose of test drug was administered by intraperitoneal injection to five pairs of mice; five additional pairs received only the vehicle and served as controls. Each drug was tested at three doses 10.0 mg, 21.5 mg, and 46.4 mg per kilogram of body weight. Thirty minutes after injection, the intruder was placed in the home cage of his opponent, and aggression was recorded as absent or present. When aggression was present, the intruder was removed immediately so that dominance was not established. Using the same procedure as employed in Examples 15 and 16, ED50 's were established for each compound.

[4] = acute, Table II, route not given, read-out: Acute Toxicity LD50
[5] = ip, intraperitoneal, 30 min before reserpine 2.5 mg/kg i.p., observed 45 min, read-out: Intraperitoneal ED50 (dose effective to protect 50 percent of the mice)
[6] = oral, before reserpine 2.5 mg/kg i.p., read-out: Oral ED50

Compound | ED50 [2, 5] [mg/kg] | ED50 [2, 6] [mg/kg] | ED50 [3] [mg/kg] | LD50 ([1]; read-out: Acute Toxicity LD50) [mg/kg] | also measured
Clc1ccccc1N=Nc1ncc[nH]1 [Example 1, 2-((2-chlorophenyl)azo)-1H-imidazole] | 20 | 23 | – | – | LD50 [1, 4]: > 562 mg/kg
Cl.Clc1ccccc1N=Nc1ncc[nH]1 [Example 2, 2-((2-chlorophenyl)azo)-1H-imidazole hydrochloride] | 17 | 32 | 13.3 | – | LD50 [1, 4]: 316 mg/kg
Fc1ccccc1N=Nc1ncc[nH]1 [Example 3, 2-((2-fluorophenyl)azo)-1H-imidazole] | – | – | 23.7 | – | selectivity ratio ([1]; ip, intraperitoneal LD50 / intraperitoneal ED50 (reserpine test), read-out: therapeutic index LD50/ED50): 13.4; LD50 ([1]; ip, intraperitoneal, acute, read-out: intraperitoneal acute 50 percent lethal dose (LD50)): 147 mg/kg; ED50 ([2]; ip, read-out: Intraperitoneal ED50 (dose effective to protect 50 percent of the mice)): 11 mg/kg; ED50 ([2]; po, read-out: Oral ED50): 11 mg/kg
c1ccc(N=Nc2ncc[nH]2)cc1 [Example 4] | 20 | 24 | 27.1 | 316 | –
Cc1ccccc1N=Nc1ncc[nH]1 [Example 5] | 42 | 43 | – | – | antianxiety activity (in words) ([3]; isolation-induced aggression in mice): very weak activity
Brc1ccccc1N=Nc1ncc[nH]1 [Example 6] | 23 | 79 | 28.7 | > 562 | –
Ic1ccccc1N=Nc1ncc[nH]1 [Example 7] | – | 75 | 31.6 | > 562 | –
O=[N+]([O-])c1ccccc1N=Nc1ncc[nH]1 [Example 8, 2-((2-nitrophenyl)azo)-1H-imidazole] | – | – | 27.1 | – | antidepressant activity (in words) [2]: active as an antidepressant
N#Cc1ccccc1N=Nc1ncc[nH]1 [Example 9] | 20 | 19 | 12.6 | 147 | –
Cc1cccc(N=Nc2ncc[nH]2)c1 [Example 10, 2-((3-methylphenyl)azo)-1H-imidazole] | 27 | – | 5.84 | – | LD50 [1, 4]: 316 mg/kg
Clc1cccc(N=Nc2ncc[nH]2)c1 [Example 11] | 24 | 32 | 24.5 | 178 | –
Cc1ccc(N=Nc2ncc[nH]2)cc1 [Example 12] | – | – | 28.7 | – | antidepressant activity (in words) [2]: essentially inactive as antidepressant agents
Cc1ccc(N=Nc2ncc[nH]2)c(Cl)c1 [Example 13] | – | – | 25.5 | – | antidepressant activity (in words) [2]: essentially inactive as antidepressant agents
Clc1ccc(N=Nc2ncc[nH]2)cc1 [Example 14, 2-((4-chlorophenyl)azo)-1H-imidazole] | – | – | 4.3 | – | antidepressant activity (in words) [2]: essentially inactive as antidepressant agents
